Measurements published in ChEMBL document CHEMBL1909294, “Translating clinical findings into knowledge in drug safety evaluation--drug induced liver injury prediction system (DILIps)” (PLoS Comput Biol, 2011).

Experiments:
Hepatotoxicity [1] = test system: Hepatotoxicity;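 as to HepSE bilirubinemia: bilirubinemia hepatic side effect score drawn from the DILIps training data, a prediction system for drug-induced liver injury; call rule not given here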;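 as to HepSE cholecystitis: Cholecystitis-related hepatic side effect score drawn from the DILIps (drug-induced liver injury prediction) training data set; call rule not given here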;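 as to HepSE cholelithiasis: hepatic side effect score for cholelithiasis, drawn from the DILIps training data for predicting drug-induced liver injury; call rule not given here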; as to HepSE hepatic failure: call rule not given here;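 as to HepSE hepatomegaly: hepatic side effect score for hepatomegaly, taken from the training set of the DILIps drug-induced liver injury prediction system; call rule not given here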;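 as to HepSE liver function tests abnormal: hepatic side effect score taken from the DILIps (drug-induced liver injury prediction system) training data, here covering abnormal liver function test findings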
Hepatotoxicity [2] = test system: Hepatotoxicity; remark: listed apart in the source;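 as to HepSE bilirubinemia: bilirubinemia hepatic side effect score drawn from the DILIps training data, a prediction system for drug-induced liver injury; call rule not given here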;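 as to HepSE cholecystitis: Cholecystitis-related hepatic side effect score drawn from the DILIps (drug-induced liver injury prediction) training data set; call rule not given here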;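 as to HepSE cholelithiasis: hepatic side effect score for cholelithiasis, drawn from the DILIps training data for predicting drug-induced liver injury; call rule not given here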; as to HepSE hepatic failure: call rule not given here;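 as to HepSE hepatomegaly: hepatic side effect score for hepatomegaly, taken from the training set of the DILIps drug-induced liver injury prediction system; call rule not given here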;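 as to HepSE liver function tests abnormal: hepatic side effect score taken from the DILIps (drug-induced liver injury prediction system) training data, here covering abnormal liver function test findings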
Hepatotoxicity [3] = test system: Hepatotoxicity; remark: listed apart in the source;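 as to HepSE bilirubinemia: bilirubinemia hepatic side effect score drawn from the DILIps training data, a prediction system for drug-induced liver injury; call rule not given here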;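 as to HepSE cholecystitis: Cholecystitis-related hepatic side effect score drawn from the DILIps (drug-induced liver injury prediction) training data set; call rule not given here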;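 as to HepSE cholelithiasis: hepatic side effect score for cholelithiasis, drawn from the DILIps training data for predicting drug-induced liver injury; call rule not given here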; as to HepSE hepatic failure: call rule not given here;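 as to HepSE hepatomegaly: hepatic side effect score for hepatomegaly, taken from the training set of the DILIps drug-induced liver injury prediction system; call rule not given here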;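 as to HepSE liver function tests abnormal: hepatic side effect score taken from the DILIps (drug-induced liver injury prediction system) training data, here covering abnormal liver function test findings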
Hepatotoxicity [4] = test system: Hepatotoxicity; remark: listed apart in the source;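 as to HepSE bilirubinemia: bilirubinemia hepatic side effect score drawn from the DILIps training data, a prediction system for drug-induced liver injury; call rule not given here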;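 as to HepSE cholecystitis: Cholecystitis-related hepatic side effect score drawn from the DILIps (drug-induced liver injury prediction) training data set; call rule not given here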;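 as to HepSE cholelithiasis: hepatic side effect score for cholelithiasis, drawn from the DILIps training data for predicting drug-induced liver injury; call rule not given here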; as to HepSE hepatic failure: call rule not given here;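 as to HepSE hepatomegaly: hepatic side effect score for hepatomegaly, taken from the training set of the DILIps drug-induced liver injury prediction system; call rule not given here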;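 as to HepSE liver function tests abnormal: hepatic side effect score taken from the DILIps (drug-induced liver injury prediction system) training data, here covering abnormal liver function test findings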
Hepatotoxicity [5] = test system: Hepatotoxicity; remark: listed apart in the source; as to HepSE hepatic failure: call rule not given here
Hepatotoxicity [6] = test system: Hepatotoxicity; remark: listed apart in the source; as to HepSE hepatic failure: call rule not given here
Hepatotoxicity [7] = test system: Hepatotoxicity; remark: listed apart in the source
Hepatotoxicity [8] = test system: Hepatotoxicity; remark: listed apart in the source
Hepatotoxicity [9] = test system: Hepatotoxicity; remark: listed apart in the source
Hepatotoxicity [10] = test system: Hepatotoxicity; remark: listed apart in the source
Hepatotoxicity [11] = test system: Hepatotoxicity; remark: listed apart in the source
Hepatotoxicity [12] = test system: Hepatotoxicity; remark: listed apart in the source
Hepatotoxicity [13] = test system: Hepatotoxicity; remark: listed apart in the source
Hepatotoxicity [14] = test system: Hepatotoxicity; remark: listed apart in the source

SMILES	HepSE_cholelithiasis (Hepatotoxicity [1])	HepSE_bilirubinemia (Hepatotoxicity [2])	HepSE_cholecystitis (Hepatotoxicity [3])	HepSE_hepatic failure (Hepatotoxicity [4])	HepSE_liver function tests abnormal (Hepatotoxicity [5])	HepSE_hepatomegaly (Hepatotoxicity [6])	HepSE_cirrhosis (Hepatotoxicity [7])	HepSE_elevated liver function tests (Hepatotoxicity [8])	HepSE_hepatic necrosis (Hepatotoxicity [9])	HepSE_Combined Scores (Hepatotoxicity [10])	HepSE_hepatitis (Hepatotoxicity [11])	HepSE_liver fatty (Hepatotoxicity [12])	HepSE_jaundice (Hepatotoxicity [13])	HepSE_liver disease (Hepatotoxicity [14])	also measured
O=P(O)(O)C(Cl)(Cl)P(=O)(O)O [CLODRONIC ACID]	0	0	0	0	0	0	0	0	0	1	0	0	0	1	
Nc1nc(Cl)nc2c1ncn2[C@@H]1O[C@H](CO)[C@@H](O)[C@@H]1F [CLOFARABINE]	0	1	0	0	0	1	0	0	0	3	0	0	1	0	
CC(C)/N=c1\cc2n(-c3ccc(Cl)cc3)c3ccccc3nc-2cc1Nc1ccc(Cl)cc1 [CLOFAZIMINE]	0	0	0	0	0	1	0	0	0	3	1	0	1	0	
CN(C)CCCN1c2ccccc2CCc2ccc(Cl)cc21 [CLOMIPRAMINE]	0	0	0	0	0	0	0	0	0	1	1	0	0	0	
O=C1CN=C(c2ccccc2Cl)c2cc([N+](=O)[O-])ccc2N1 [CLONAZEPAM]	0	0	0	0	0	1	0	0	0	1	0	0	0	0	
Clc1cccc(Cl)c1N=C1NCCN1 [CLONIDINE]															HepSE_cholelithiasis (Hepatotoxicity [1]; Liver): 0; HepSE_bilirubinemia (Hepatotoxicity [2]; Liver): 0; HepSE_cholecystitis (Hepatotoxicity [3]; Liver): 0; HepSE_hepatic failure (Hepatotoxicity [4]; Liver): 0; HepSE_liver function tests abnormal (Hepatotoxicity [5]; Liver): 0; HepSE_hepatomegaly (Hepatotoxicity [6]; Liver): 0; HepSE_cirrhosis (Hepatotoxicity [7]; Liver): 0; HepSE_elevated liver function tests (Hepatotoxicity [8]; Liver): 0; HepSE_hepatic necrosis (Hepatotoxicity [9]; Liver): 0; HepSE_Combined Scores (Hepatotoxicity [10]; Liver): 1; HepSE_hepatitis (Hepatotoxicity [11]; Liver): 1; HepSE_liver fatty (Hepatotoxicity [12]; Liver): 0; HepSE_jaundice (Hepatotoxicity [13]; Liver): 0; HepSE_liver disease (Hepatotoxicity [14]; Liver): 0
COC(=O)[C@H](c1ccccc1Cl)N1CCc2sccc2C1 [CLOPIDOGREL]															HepSE_cholelithiasis (Hepatotoxicity [1]; Liver): 0; HepSE_bilirubinemia (Hepatotoxicity [2]; Liver): 1; HepSE_cholecystitis (Hepatotoxicity [3]; Liver): 0; HepSE_hepatic failure (Hepatotoxicity [4]; Liver): 1; HepSE_liver function tests abnormal (Hepatotoxicity [5]; Liver): 0; HepSE_hepatomegaly (Hepatotoxicity [6]; Liver): 0; HepSE_cirrhosis (Hepatotoxicity [7]; Liver): 0; HepSE_elevated liver function tests (Hepatotoxicity [8]; Liver): 0; HepSE_hepatic necrosis (Hepatotoxicity [9]; Liver): 0; HepSE_Combined Scores (Hepatotoxicity [10]; Liver): 4; HepSE_hepatitis (Hepatotoxicity [11]; Liver): 1; HepSE_liver fatty (Hepatotoxicity [12]; Liver): 1; HepSE_jaundice (Hepatotoxicity [13]; Liver): 0; HepSE_liver disease (Hepatotoxicity [14]; Liver): 0
Clc1ccccc1C(c1ccccc1)(c1ccccc1)n1ccnc1 [CLOTRIMAZOLE]	0	0	0	0	1	0	0	0	0	1	0	0	0	0	
CN1CCN(C2=Nc3cc(Cl)ccc3Nc3ccccc32)CC1 [CLOZAPINE]	0	0	0	0	0	0	0	0	0	2	1	0	1	0	
C[C@]12CCC(=O)C=C1CC[C@@H]1[C@@H]2C(=O)C[C@@]2(C)[C@H]1CC[C@]2(O)C(=O)CO [CORTISONE]	0	0	0	0	0	0	0	0	0	0	0	0	0	0	
O=C(O)c1cc(=O)c2c(OCC(O)COc3cccc4oc(C(=O)O)cc(=O)c34)cccc2o1 [CROMOLYN]	0	0	0	0	0	0	0	0	0	1	0	0	0	1	
CN(C)CCC=C1c2ccccc2C=Cc2ccccc21 [CYCLOBENZAPRINE]															HepSE_cholelithiasis (Hepatotoxicity [1]; Liver): 0; HepSE_bilirubinemia (Hepatotoxicity [2]; Liver): 0; HepSE_cholecystitis (Hepatotoxicity [3]; Liver): 0; HepSE_hepatic failure (Hepatotoxicity [4]; Liver): 0; HepSE_liver function tests abnormal (Hepatotoxicity [5]; Liver): 0; HepSE_hepatomegaly (Hepatotoxicity [6]; Liver): 0; HepSE_cirrhosis (Hepatotoxicity [7]; Liver): 0; HepSE_elevated liver function tests (Hepatotoxicity [8]; Liver): 0; HepSE_hepatic necrosis (Hepatotoxicity [9]; Liver): 0; HepSE_Combined Scores (Hepatotoxicity [10]; Liver): 2; HepSE_hepatitis (Hepatotoxicity [11]; Liver): 1; HepSE_liver fatty (Hepatotoxicity [12]; Liver): 0; HepSE_jaundice (Hepatotoxicity [13]; Liver): 1; HepSE_liver disease (Hepatotoxicity [14]; Liver): 0
CN(C)CCOC(=O)C(c1ccccc1)C1(O)CCCC1 (configuration not stated) [CYCLOPENTOLATE]	0	0	0	0	0	0	0	0	0	0	0	0	0	0	
